Laboratory results published in US5047397A, “Linear analogs of atrial natriuretic peptides” (California Biotechnology Inc., priority 1988, dated 1991).
*1 amine or outer side, *2 acyl side, *3 side chain or, on linkers, in order; H or OH if unused. Where a SMILES comes first, the peptide text is derived from it. Where no end group is shown, it is not given here. [ ]: non-standard residue; d: D form. The star is where a group is joined. X2 = N=C(N)NCCC[C@@H](C(=O)[*:2])N(CCc1ccc(N[*:3])cc1)[*:1]; Acetyl(2-naphthyloxy) = O=C(COc1ccc2ccccc2c1)*; Dibenzylacetyl = O=C(C(Cc1ccccc1)Cc1ccccc1)*; Acetyl(2-naphthyl) = O=C(Cc1ccc2ccccc2c1)*; Cyclohexylacetyl = O=C(CC1CCCCC1)*; 2Naphthoyl = O=C(c1ccc2ccccc2c1)*; Hydrocinnamoyl = O=C(CCc1ccccc1)*; X1 = O=C(Cc1ccc(N[*:1])cc1)[*:2]; Cha = N[C@@H](CC1CCCCC1)C(=O)O; Phg = N[C@H](C(=O)O)c1ccccc1; Aoc = NCCCCCCCC(=O)O; Inp = O=C(O)C1CCNCC1; Ahx = NCCCCCC(=O)O; GABA = NCCCC(=O)O

Target: T1, specific ANP receptor sites on BASM or BAE cells (Bos taurus, UniProt P10730)
T1 construct: specific receptor sites on BASM or BAE cells; endogenous in cells; host or cells: cultured BASM and BAE cells
T1 sequence (P10730 42-537): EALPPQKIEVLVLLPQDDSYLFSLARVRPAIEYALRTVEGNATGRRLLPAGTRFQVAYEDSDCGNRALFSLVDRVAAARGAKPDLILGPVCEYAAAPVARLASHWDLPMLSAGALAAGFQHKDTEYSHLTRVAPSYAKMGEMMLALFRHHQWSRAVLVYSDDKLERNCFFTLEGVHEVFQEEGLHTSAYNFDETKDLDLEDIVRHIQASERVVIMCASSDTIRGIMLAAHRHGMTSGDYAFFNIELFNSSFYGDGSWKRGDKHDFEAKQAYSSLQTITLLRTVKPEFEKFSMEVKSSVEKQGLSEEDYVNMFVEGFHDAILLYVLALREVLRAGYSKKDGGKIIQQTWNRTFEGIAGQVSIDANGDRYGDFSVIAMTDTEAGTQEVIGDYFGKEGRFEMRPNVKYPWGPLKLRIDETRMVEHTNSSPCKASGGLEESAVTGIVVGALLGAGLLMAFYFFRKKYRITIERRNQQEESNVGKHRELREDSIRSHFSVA
Experiment: Competitive displacement receptor binding of (125I)-rANP(126-150) on cultured cells
Set-up: species or system bovine
Details: for Ki(app): concentration of unlabeled peptide displacing 50% of maximal binding of 0.5 nM (125I)-rANP(126-150), BASM or BAE cells
Description: Analogous "competitive displacement" receptor binding assays are considered commonplace in the art for examining specific ligand-receptor interactions.
Assuming these ANP analogs act at one or more ANP receptor sites, then increased receptor affinity should reflect increased biological potency.

Row | Compound | Ki(app) | receptor binding / activity as judged by Ki, in words
1 | CC[C@H](C)[C@H](NC(=O)[C@H](CCCNC(=N)N)NC(=O)[C@H](CC(=O)O)NC(=O)[C@@H](NC(=O)[C@H](CCCNC(=N)N)NC(=O)CCCNC(=O)Cc1ccc2ccccc2c1)[C@@H](C)CC)C(N)=O [AP327, (2-NA)--NH(CH2)3 CO--R--I-- D--R--I--NH2] ({Acetyl(2-naphthyl)-GABA}-RIDRI-NH2) | 184 nM | 
2 | CC[C@H](C)[C@H](NC(=O)[C@H](CCCNC(=N)N)NC(=O)[C@H](CC(=O)O)NC(=O)[C@@H](NC(=O)[C@H](CCCNC(=N)N)NC(=O)CNC(=O)CNC(=O)Cc1ccc2ccccc2c1)c1ccccc1)C(N)=O [AP575, (2-NA)--G--G--R--Phg--D--R--I--NH2] ({Acetyl(2-naphthyl)}-GGR[Phg]DRI-NH2) | 194.0 nM | very low, if any, activity
3 | CC[C@H](C)[C@H](NC(=O)[C@H](CCCNC(=N)N)NC(=O)CNC(=O)CNC(=O)Cc1ccc2ccccc2c1)C(=O)N[C@@H](CC(=O)O)C(=O)N[C@@H](CCCNC(=N)N)C(=O)N[C@@H](C(N)=O)C(C)C [AP535, (2-NA)--G--G--R--I--D--R--V^ --NH2)] ({Acetyl(2-naphthyl)}-GGRIDR[dV]-NH2) | 14.0 nM | 
4 | CC[C@H](C)[C@H](NC(=O)[C@H](CCCNC(=N)N)NC(=O)[C@H](CC(=O)O)NC(=O)[C@@H](NC(=O)[C@H](CCCNC(=N)N)NC(=O)CNC(=O)CNC(=O)CCc1ccccc1)[C@@H](C)CC)C(N)=O [AP132, (desNH2 --F)--G--G--R--I--D--R--I--NH2] (Hydrocinnamoyl-GGRIDRI-NH2) | 10.15 nM | 
5 | CC[C@H](C)[C@H](NC(=O)[C@H](CCCNC(=N)N)NC(=O)[C@H](CC(=O)O)NC(=O)[C@@H](NC[C@H](CCCCN)NC(=O)Cc1ccc(NC(=O)COc2ccc3ccccc3c2)cc1)[C@@H](C)CC)C(N)=O [AP808] | 98.9 nM | 
6 | CC[C@@H](C)[C@@H](NC(=O)[C@H](CCCNC(=N)N)NC(=O)CNC(=O)CNC(=O)[C@H](Cc1ccccc1)NC(=O)[C@H](C)N)C(=O)N[C@@H](CC(=O)O)C(=O)N[C@@H](CCCNC(=N)N)C(=O)N[C@H](C(=O)NCC(=O)N[C@@H](C)C(N)=O)[C@@H](C)CC [AP302, A--F--G--G--R--I^ --D--R--I--G--A--NH2] (H-AFGGR[dI]DRIGA-NH2) | 18.9 nM | 
7 | CC[C@H](C)[C@H](NC(=O)[C@H](CCCNC(=N)N)NC(=O)[C@H](CC(=O)O)NC(=O)[C@@H](NC(=O)[C@H](CCCNC(=N)N)NC(=O)C1CCN(C(=O)COc2ccc3ccccc3c2)CC1)[C@@H](C)CC)C(N)=O [AP539] ({Acetyl(2-naphthyloxy)-Inp}-RIDRI-NH2) | 9.1 nM | 
8 | YAFGGRIDRIGA-NH2 [AP175, Y--A--F--G--G--R--I--D--R--I--G--A--NH2] | 5.94 nM | 
9 | CCNC(=O)[C@@H](NC(=O)[C@H](CCCNC(=N)N)NC(=O)[C@H](CC(=O)O)NC(=O)[C@@H](NC(=O)[C@H](CCCNC(=N)N)NC(=O)CNC(=O)CNC(=O)Cc1ccc2ccccc2c1)[C@@H](C)CC)[C@@H](C)CC [AP328, (2-NA)--G--G--R--I--D--R--I--NH(ethyl)] ({Acetyl(2-naphthyl)}-GGRIDRI-NHEt) | 19.87 nM | 
10 | CC[C@H](C)[C@H](NC(=O)[C@H](CCCNC(=N)N)NC(=O)[C@H](CC(=O)O)NC(=O)[C@@H](NC(=O)[C@H](CCCNC(=N)N)NC(=O)CNC(=O)CNC(=O)CCc1ccccc1)[C@@H](C)CC)C(=O)NCC(=O)N[C@@H](C)C(N)=O [AP130, (desNH2 --F)--G--G--R--I--D--R--I--G--A--NH2] (Hydrocinnamoyl-GGRIDRIGA-NH2) | 8.8 nM | 
11 | CC[C@H](C)[C@H](NC(=O)[C@H](CCCNC(=N)N)NC(=O)[C@H](CC(=O)O)NC(=O)[C@@H](NC(=O)[C@H](CCCCN)NC(=O)Cc1ccc(NC(=O)COc2ccc3ccccc3c2)cc1)[C@@H](C)CC)C(N)=O [AP798] ({Acetyl(2-naphthyloxy)}-[X1]KIDRI-NH2) | 3.95 nM | 
12 | CC[C@H](C)CNC(=O)[C@H](CCCNC(=N)N)NC(=O)[C@H](CC(=O)O)NC(=O)[C@@H](NC(=O)[C@H](CCCNC(=N)N)NCC1CCN(C(=O)COc2ccc3ccccc3c2)CC1)[C@@H](C)CC [AP812] | 32.0 nM | 
13 | GGRIDRIGAA-NH2 [AP105, G--G--R--I--D--R--I--G--A--A--NH2] | > 200 nM | do not
14 | CC[C@H](C)[C@H](NC(=O)[C@H](CCCNC(=N)N)NC(=O)[C@H](CC(=O)O)NC(=O)[C@@H](NC(=O)[C@H](CCCNC(=N)N)NC(=O)[C@@H](C)NC(=O)CNC(=O)[C@H](Cc1ccccc1)NC(=O)[C@H](C)N)[C@@H](C)CC)C(=O)NCC(=O)N[C@@H](C)C(N)=O [AP157, A--F--G--A^ --R--I--D--R--I--G--A--NH2] (H-AFG[dA]RIDRIGA-NH2) | 5.90 nM | 
15 | CC[C@H](C)[C@H](NC(=O)[C@H](CCCNC(=N)N)NC(=O)[C@H](CC(=O)O)NC(=O)[C@@H](NC(=O)[C@H](CCCNC(=N)N)NC(=O)CCCCCCCNC(=O)COc1ccc2ccccc2c1)[C@@H](C)CC)C(N)=O [AP789, (2-NOA)--NH--(CH2)7 --CO--R--I--D--R--I--NH2] ({Acetyl(2-naphthyloxy)-Aoc}-RIDRI-NH2) | 380 nM | 
16 | CC[C@H](C)[C@H](NC(=O)[C@H](CCCNC(=N)N)NC(=O)[C@H](CC(=O)O)NC(=O)[C@@H](NC(=O)[C@H](CCCNC(=N)N)NC(=O)CNC(=O)CNC(=O)CC1CCCCC1)[C@@H](C)CC)C(N)=O [AP334, (CHA)--G--G--R--I--D--R--I--NH2] (Cyclohexylacetyl-GGRIDRI-NH2) | 92.8 nM | 
17 | CC[C@H](C)[C@H](NC(=O)[C@H](CCCNC(=N)N)NC(=O)[C@H](CC(=O)O)NC(=O)[C@H](CC1CCCCC1)NC(=O)[C@H](CCCNC(=N)N)NC(=O)CNC(=O)CNC(=O)Cc1ccc2ccccc2c1)C(N)=O [AP527, (2-NA)--G--G--R--Cha--D--R--I--NH2] ({Acetyl(2-naphthyl)}-GGR[Cha]DRI-NH2) | 22.5 nM | 
18 | CC[C@H](C)[C@H](NC(=O)[C@H](CCCNC(=N)N)NC(=O)[C@H](CC(=O)O)NC(=O)[C@@H](NC(=O)[C@H](CCCNC(=N)N)NC(=O)CCCCCNC(=O)Cc1ccc2ccccc2c1)[C@@H](C)CC)C(N)=O [AP329, (2-NA)--NH(CH2)5 CO--R--I--D--R--I--NH2] ({Acetyl(2-naphthyl)-Ahx}-RIDRI-NH2) | 147.78 nM | 
19 | CC[C@H](C)[C@H](NC(=O)[C@H](CCCNC(=N)N)NC(=O)[C@H](CC(=O)O)NC(=O)[C@@H](NC[C@H](CCCCN)NC(=O)Cc1ccc(NC(=O)c2ccc3ccccc3c2)cc1)[C@@H](C)CC)C(N)=O [AP809] | 14.7 nM | 
20 | AFGGRIDRIG-NH2 [AP102, A--F--G--G--R--I--D--R--I--G--NH2] | 14.04 nM | 
21 | CC[C@H](C)[C@H](NC(=O)[C@H](CCCNC(=N)N)NC(=O)[C@H](CC(=O)O)NC(=O)[C@@H](NC(=O)[C@H](CCCNC(=N)N)NC(=O)CCCNC(=O)COc1ccc2ccccc2c1)[C@@H](C)CC)C(=O)NCC(=O)N[C@@H](C)C(N)=O [AP576, (2-NOA)--NH(CH2)3 CO--R--I--D--R--I--G--A--NH2] ({Acetyl(2-naphthyloxy)-GABA}-RIDRIGA-NH2) | 16.0 nM | 
22 | CC[C@H](C)[C@H](NC(=O)[C@H](CCCNC(=N)N)NC(=O)[C@H](CC(=O)O)NC(=O)[C@@H](NC(=O)[C@H](CCCNC(=N)N)NCCc1ccc(NC(=O)COc2ccc3ccccc3c2)cc1)[C@@H](C)CC)C(N)=O [AP816] (H-[X2](Acetyl(2-naphthyloxy))IDRI-NH2) | 17.4 nM | 
23 | CC[C@H](C)[C@H](NC(=O)[C@H](CCCNC(=N)N)NC(=O)[C@H](CC(=O)O)NC(=O)[C@@H](NC(=O)[C@H](CCCNC(=N)N)NC(=O)Cc1ccc(NC(=O)c2ccc3ccccc3c2)cc1)[C@@H](C)CC)C(N)=O [AP790] (2Naphthoyl-[X1]RIDRI-NH2) | 5.2 nM | 
24 | CC[C@H](C)[C@H](NC(=O)[C@H](CCCNC(=N)N)NC(=O)CNC(=O)CNC(=O)Cc1ccc2ccccc2c1)C(=O)N[C@@H](CC(=O)O)C(=O)N[C@@H](CCCNC(=N)N)C(=O)N[C@H](C(N)=O)C(C)C [AP333, (2-NA)--G--G--R--I--D--R--V--NH2] ({Acetyl(2-naphthyl)}-GGRIDRV-NH2) | 106.4 nM | 
25 | CC[C@H](C)[C@H](NC(=O)[C@H](CCCNC(=N)N)NC(=O)[C@H](CC(=O)O)NC(=O)[C@@H](NC(=O)[C@H](C)NC(=O)CNC(=O)CNC(=O)Cc1ccc2ccccc2c1)[C@@H](C)CC)C(N)=O [AP338, (2-NA)--G--G--A--I--D--R--I--NH2] ({Acetyl(2-naphthyl)}-GGAIDRI-NH2) | 82.6 nM | 
26 | CC[C@H](C)[C@H](NC(=O)[C@H](CCCNC(=N)N)NC(=O)[C@H](CC(=O)O)NC(=O)[C@@H](NC(=O)[C@H](CCCNC(=N)N)NC(=O)CNC(=O)CNC(=O)C(Cc1ccccc1)Cc1ccccc1)[C@@H](C)CC)C(=O)NCC(=O)N[C@@H](C)C(N)=O [AP534, (DBA)--G--G--R-- I--D--R--I--G--A--NH2)] (Dibenzylacetyl-GGRIDRIGA-NH2) | 8.81 nM | 
